# Assay results as given in patent publication US20210275545A1, “METHOD OF TREATING CANCER PREFERABLY CHARACTERIZED BY EXPRESSION OF A FUSION PROTEIN COMPRISING A MEMBER OF THE E-TWENTY-SIX FAMILY BY ADMINISTERING AN AGENT THAT INHIBITS THE SYNTHESIS AND/OR ACTIVITY OF CORTISOL” (Yeda Research and Development Co. Ltd., priority 2018, published 2021).
# What was measured:
# [1] = tested on: CHLA9 and RD-ES cells; assay: Matrigel invasion assay of ES cells; assay type: cell-based; conditions: DEX 1 μM, RU486 1 μM, D06 10 μM; 20 hours
# Procedure: (§4) (A) CHLA9 cells were seeded in 100-mm dishes. Once they reached sub-maximal density, cells were starved overnight for serum factors. […] Cells were then extracted and the lysates were processed for co-immunoprecipitation assays using an antibody against GR followed by immunobloting that used an antibody against EWS. The image shown is representative of 3 biological replicates. Signals were quantified and normalized (see numbers below each lane). EB, empty beads. […] (C-D) CHLA9 cells were seeded on the upper faces of either Transwell migration chambers or Matrigel-coated invasion chambers, and further incubated for 20 hours in full medium. Control siRNAs or siRNAs specific to either GR or EWS-FLI1 were added to cells 24 hours prior to seeding, and both cell migration and invasion were measured 20 hours later. […] Cells that reached the lower faces of the chambers were fixed and stained. Shown are representative images of stained cells. The bar plots show quantification, using ImageJ, of the area covered by cells. *, p≤0.05, **, p≤0.005. Bars, 500 μm. […] The bar plots show quantification, using ImageJ, of the area covered by cells. *, p≤0.05, **, p≤0.005. […]
# (§5) (A) RD-ES cells were seeded in 100-mm dishes. […] Cell migration/invasion was determined 20 hours later.
# [2] = biological target: T1, GR and FLI1 (Homo sapiens, UniProt P04150); conditions: combination of DEX (1 μM) and RU486 (1 μM)
# Procedure: (§1) (A) The scheme presents the full length Gaussia luciferase protein, along with either the amino-terminal segment (Gluc1), which was fused to an ETS family transcription factor, or the carboxyl terminal segment (Gluc2), which was fused to GR. Amino acid numbers are indicated. cDNAs encoding most members of the ETS family (16 members altogether) were cloned downstream to Gluc1. […] (B) HEK-293T cells (6×10^3) were seeded in 96-well plates. On the next day, cells were transfected with combinations of the Gluc1 plasmid, encoding a fused ETS family member, and the Gluc2 plasmid encoding a fused full-length GR. […] Cells were then lysed and luminescence was determined in biological triplicates. […] (D and E) HEK-293T cells were seeded in 100-mm dishes. Once they reached sub-maximal density (70%), cells were starved overnight for serum factors. […] Cell extracts were then processed for co-immunoprecipitation assays, in which the endogenous FLI1 or ERG protein was immunoprecipitated using a specific antibody, and immunoblotting was performed using an antibody against GR. EB, empty beads; C, solvent control. Images shown are representative of three biological replicates.
# (A) HEK-293T cells (6×10^3) were seeded in 96-well plates. On the next day, the cells were transfected with combinations of the Gluc1 plasmid, encoding fused FLI1 or ERG, and the Gluc2 plasmid encoding GR. […] Cells were then lysed and luminescence was determined in each sample. Luminescence of vehicle-treated cells was used for normalization. […] (B) HEK-293T cells were seeded on coverslips in 6-well plates. […] Images were processed using the Zeiss ZEN2011 software. […] Bars, 20 μm.
# (§2) Protein-fragment complementation assays (PCA): PCA was performed as previously described.
# [3] = tested on: CHLA9 and RD-ES cells; assay: Transwell migration assay of ES cells; assay type: cell-based; conditions: DEX 1 μM, RU486 1 μM, D06 10 μM; 20 hours
# Procedure: as §4, §5
# [4] = tested on: TC-71 cells; assay: Bone-to-lung metastasis of luciferase-labeled TC-71 cells injected into the tibia; assay type: in vivo, SCID mice; conditions: TC-71 in tibia; 1 mg/kg intraperitoneally
# Text: FIGS. 6A-E. A GR antagonist and a cortisol-lowering drug impede growth of human xenograft models of Ewing's sarcoma. (A) RD-ES cells (2×10^6) were implanted subcutaneously in the right flank of SCID mice. […] The means of tumor volumes (+SEM) are shown. […] (B) Shown are representative images of immunofluorescent staining for KI67 in paraffin-embedded sections of tumors from A, using an antibody against KI67. Scale bars, 100 μm. Also shown is the scatter plot depicting quantification of KI67 staining in randomly selected 4 fields of a representative tumor from each group. […] (C and D) A673 cells (2×10^6) were implanted in female SCID mice. […] Each group was daily treated with either vehicle, or Metyrapone (25 mg/kg) and tumorigenic growth was monitored. Actual tumor volumes (±SEM) are presented. Also shown are tumors harvested from each group of animals; **p<0.001. (E) TC-71 cells (10^6) engineered to stably express luciferase were injected into the tibia of female SCID mice (5 weeks old; 7 mice per group). […] The control group was similarly treated with the solvent (0.1% tween 80). When the primary tumor reached 10% of body weight, the lungs were excised and examined for metastasis using luciferase bioluminescence imaging. […] Luminescence was quantified and presented in a bar graph. […] Tumor growth was monitored once every 3 days using a caliper. […]
# [5] = biological target: GR and EWS-FLI1 (Homo sapiens, UniProt P04150); conditions: A673 cells
# Procedure: Images were processed using the Zeiss ZEN2011 software. […] Bars, 20 μm.
# (§3) Proximity ligation assay (PLA), extraction of cells, co-immunoprecipitation and cell migration/invasion assays: These assays were performed exactly as recently reported.
# [6] = tested on: A673 cells; assay: Apoptosis assay (annexinV/7-AAD); assay type: cell-based; conditions: RU486 10 or 20 μM, 48 hours
# Procedure: FIGS. 12A-F: Inhibition of GR activity decreases growth and survival of Ewing's sarcoma cells. […] (B) Increasing concentrations of […], a non-steroidal antagonist of GR [54], were incubated with A673 cells as in A and the MTT assay was performed in triplicates. *, p<0.05. […] Note that the abundance of the endogenous form of FLI1 is much weaker than that of EWS-FLI1. […] MTT assays were performed after 48 hours of treatment. The assay was repeated twice in quadruplets. **, p<0.01, ***, p<0.001. (E) A673 cells were seeded in 100-mm dishes. […] Shown are results of an apoptosis assay performed using an annexinV/7-AAD kit (BioLegend, Inc.). Quantification of the fractions of early and late apoptotic cells is shown in bar plots. The experiment was repeated twice. (F) The indicated ES cells were sparsely seeded in 6-well plates. […] Ten days later, cells were fixed and stained with crystal violet to visualize emerging colonies. Photos are shown along with bar plots showing the quantification of colonies in 5 non-overlapping microscope fields. The experiment was repeated twice. *, p≤0.05; **, p≤0.001. Apoptosis assays: Assays were performed using the FITC Annexin V Apoptosis Detection Kit with 7-AAD (from BioLegend) and analyzed using a BD FACSAria Fusion instrument controlled by BD FACS Diva software v8.0.1 (BD Biosciences).
# [7] = biological target: GR and ETV4 (Homo sapiens, UniProt P04150); conditions: combination of DEX (1 μM) and RU486 (1 μM)
# Procedure: as §1, §2
# [8] = biological target: GR and PU.1 (Homo sapiens, UniProt P04150); conditions: combination of DEX (1 μM) and RU486 (1 μM)
# Procedure: as §1, §2
# [9] = biological target: T1, GR and FLI1; conditions: HEK-293T cells, treated for 60 minutes
# Procedure: as §1, §3
# T1 sequence (P04150 whole entry, the tested form may be a part): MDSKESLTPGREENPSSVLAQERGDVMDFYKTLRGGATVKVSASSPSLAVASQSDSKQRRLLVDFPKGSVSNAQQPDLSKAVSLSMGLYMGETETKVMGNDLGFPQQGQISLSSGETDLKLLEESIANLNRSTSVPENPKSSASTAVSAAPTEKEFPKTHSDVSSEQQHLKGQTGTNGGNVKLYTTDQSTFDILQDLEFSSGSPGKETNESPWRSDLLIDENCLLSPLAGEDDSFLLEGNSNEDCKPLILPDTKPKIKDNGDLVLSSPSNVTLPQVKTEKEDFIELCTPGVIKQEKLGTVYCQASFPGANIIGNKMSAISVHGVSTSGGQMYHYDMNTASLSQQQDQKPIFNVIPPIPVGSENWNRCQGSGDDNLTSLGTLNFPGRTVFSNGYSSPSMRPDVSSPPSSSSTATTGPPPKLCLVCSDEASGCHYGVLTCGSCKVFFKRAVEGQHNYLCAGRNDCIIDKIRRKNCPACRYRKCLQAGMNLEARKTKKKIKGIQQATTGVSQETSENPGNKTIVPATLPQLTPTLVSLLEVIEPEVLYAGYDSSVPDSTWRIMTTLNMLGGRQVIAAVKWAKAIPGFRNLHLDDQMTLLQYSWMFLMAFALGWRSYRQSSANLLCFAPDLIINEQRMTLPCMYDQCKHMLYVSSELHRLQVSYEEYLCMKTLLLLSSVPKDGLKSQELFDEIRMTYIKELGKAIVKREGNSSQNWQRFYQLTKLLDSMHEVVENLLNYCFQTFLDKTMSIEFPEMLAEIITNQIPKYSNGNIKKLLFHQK
# Chain of GR and EWS-FLI1 (P04150 whole entry): as the sequence (P04150 whole entry, the tested form may be a part) above
# Chain of GR and ETV4 (P04150 whole entry): as the sequence (P04150 whole entry, the tested form may be a part) above
# Chain of GR and PU.1 (P04150 whole entry): as the sequence (P04150 whole entry, the tested form may be a part) above
smiles,measurement,setting,value
"CC#C[C@]1(O)CC[C@H]2[C@@H]3CCC4=CC(=O)CCC4=C3[C@@H](c3ccc(N(C)C)cc3)C[C@@]21C [RU486, Mifepristone]",matrix invasion,[1],inhibited
same,effect on DEX-induced physical interaction between GR and FLI1 (PCA),[2],significantly inhibited
same,cell migration,[3],inhibited
same,bone-to-lung metastasis (lung luminescence),[4],lessened lung nodules
same,GR/EWS-FLI1 protein-protein interactions (PLA),[5],blocked
same,early apoptosis (fraction of cells),[6]; DEX 1 μM,increased
same,late apoptosis (fraction of cells),[6],increased
same,effect on DEX-induced physical interaction between GR and ETV4 (PCA),[7],only a trend was noted
same,effect on DEX-induced physical interaction between GR and PU.1 (PCA),[8],significantly inhibited
same,co-immunoprecipitation of GR and FLI1,[9],strongly reduced
